Columns and labels:
Leukemia L1210 [1] = assay: Activity against Leukemia L1210, oral, increase in life span of mice; assay type: in vivo, female mice (BDF1 family); settings: for Survivors after 60 days / Max. ILS % / Therapeutic ratio TR: oral; for Survivors after 60 days: 6-membered group; for Max. ILS %: 60-day observation, versus control; for Therapeutic ratio TR: O.D./ILS30; for ED (maximum ILS) / ED30: Mus musculus, L1210; for ED (maximum ILS): read-out: O.D. (optimum dosage); for ED30: read-out: ILS30
Method: Tests were conducted in accordance with the method for measuring antitumor activity of National Cancer Center Tokyo (A, Hoshi et al, Farumashia 9 464 (1973)). Test compounds were each intraperitoneally (referred to as ip) or orally (referred to as op) administered once a day for 5 successive days to a 6-membered group of femal mice (BDF1 family, each weighing 20 to 23 g) 24 hours after 1×10^5 cells of Leukemia L1210 have been implantated into the abdominal cavities of the mice, and the effect was evaluated by comparing the survival days of treated groups with those of an untreated group of mice (control group) in 60-day observation. An increase percentage of life span (ILS%) was calculated from said average survival days compared with those of the control group. Further, therapeutic ratio (O.D./ILD30, referred to as T.R.) of each tested compound was calculated from the daily dosage of the compound necessary to increase said average survival days by 30% as compared with the control group (this dosage is referred to as ILS 30) and the daily dosage giving a maximum increase of life span to mice implantated with L1210 cells, namely an optimum dosage (referred to as O.D.). The results of five successive days intraperitoneal administrations of test compounds were shown in Tables I to III, and those of five successive oral administrations in Table IV.

Leukemia L1210 [2] = assay: Activity against Leukemia L1210, intraperitoneal, increase in life span of mice; assay type: in vivo, female mice (BDF1 family); settings: for Survivors after 60 days / Max. ILS % / Therapeutic ratio TR: ip; for Survivors after 60 days: 6-membered group; for Max. ILS %: 60-day observation, versus control; for Therapeutic ratio TR: O.D./ILS30; for ED (maximum ILS) / ED30: Mus musculus, L1210, ip; for ED (maximum ILS): read-out: O.D. (optimum dosage); for ED30: read-out: ILS30
Method in brief: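 Beginning 24 hours after intraperitoneal implantation of 1×10^5 leukemia cells, six-mouse groups of female BDF1 mice receive the test compound once daily for five consecutive days by the ip or oral route. Survival is recorded up to 60 days and compared with untreated controls.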

[3] = Acute toxicity (LD50, Behrens-Karber method); assay type: in vivo, ICR mice; settings: ip, mortality during 30 days; for LD50 at 720 h: mouse, in vivo
Method: Test compounds, dissolved or suspended in 0.5% aqueous CMC, were each intraperitoneally administered to ICR mice in a dose of 0.1 ml per 10 g body weight. LD50 (mg/kg) value of each test compound was calculated from the mortality of mice during 30 days by the Behrens-Karber method.

Ehrlich acites carcinoma = assay: Growth-inhibiting effect against Ehrlich acites carcinoma; assay type: in vivo, male mice; settings: 5 days
Method: Ehrlich acites carcinoma (1×10^7 cells) was implantated into the abdominal cavities of a 6-membered group of male mice. Test compounds (solutions or suspensions in 1% Nikohl HCO-60) were each intraperioneally administered once a day 5 successive days to the mice 24 hrs. after the implantation. Total packed cell volumes [TPCV, namely, total packed volumes of Acites carcinoma] were determined 7 days after the implantation to calculate growth ratio of tumor [T/C%; T: packed volume of Acites carcinoma in treated groups, C: packed volume of Acites carcinoma in an untreated group]. Acitivity is represented by - when T/C% is 100-66, by + when T/C% 65-41, by ++ when T/C% 40-11, and by +++ when T/C% 10-0.

[4] = oral once a day for 5 successive days, daily dosage giving maximum increase of life span
[5] = oral once a day for 5 successive days, daily dosage increasing average survival days by 30%
[6] = ip once a day for 5 successive days, daily dosage giving maximum increase of life span
[7] = ip once a day for 5 successive days, daily dosage increasing average survival days by 30%

Compound | O.D. (optimum dosage) (Leukemia L1210 [1]; [4]) [mg/kg] | ILS30 (Leukemia L1210 [1]; [5]) [mg/kg] | Survivors after 60 days (Leukemia L1210 [1]) | Max. ILS % (Leukemia L1210 [1]) [%] | Therapeutic ratio TR (Leukemia L1210 [1]) | O.D. (optimum dosage) (Leukemia L1210 [2]; [6]) [mg/kg] | ILS30 (Leukemia L1210 [2]; [7]) [mg/kg] | Survivors after 60 days (Leukemia L1210 [2]) | Max. ILS % (Leukemia L1210 [2]) [%] | Therapeutic ratio TR (Leukemia L1210 [2]) | LD50 [3] [mg/kg] | Activity (Ehrlich acites carcinoma; 25 mg/kg/day ip) | T/C % (Ehrlich acites carcinoma; 25 mg/kg/day ip) [%] | Activity (Ehrlich acites carcinoma; 100 mg/kg/day ip) | T/C % (Ehrlich acites carcinoma; 100 mg/kg/day ip) [%] | ED (maximum ILS) (Leukemia L1210 [1]; [4]) [mg/kg] | ED30 (Leukemia L1210 [1]; [5]) [mg/kg] | ED (maximum ILS) (Leukemia L1210 [2]; [6]) [mg/kg] | ED30 (Leukemia L1210 [2]; [7]) [mg/kg] | LD50 at 720 h [3] [mg/kg]
3-tert-butyl-3-(methoxy-2-n-butyl β-D-glucopyranose-6-yl)-1-(2-chloroethyl)-1-nitrosourea [Compound 178] | 210 | 9.38 | 5/6 | > 625 | 22.4 | 180 | 2.71 | 6/6 | > 700 | 66.5 | 570 | +++ (T/C% 10-0) | 0 | +++ (T/C% 10-0) | 0 | – | – | – | – | –
CC(C)CN(C[C@H]1O[C@@H](OC2CCCCC2)[C@@H](O)[C@@H]1O)C(=O)N(CCCl)N=O [Compound 161, 3-isobutyl-3-(cyclohexyl β-D-arabinofuranose-5-yl)-1-(2-chloroethyl)-1-nitrosourea] | – | – | 3/6 | > 350 | 14.2 | – | – | 4/6 | > 440 | 47.2 | – | – | – | – | – | 180 | 12.7 | 150 | 3.18 | 460
COCCCO[C@@H]1O[C@H](CN(CC(C)C)C(=O)N(CCCl)N=O)[C@@H](O)[C@H]1O [Compound 167, 3-isobutyl-3-(3-methoxy-n-propyl β-D-ribofuranose-5-yl)-1-(2-chloroethyl)-1-nitrosourea] | – | – | 4/6 | > 450 | 15.0 | – | – | 4/6 | > 430 | 50.5 | – | – | – | – | – | 180 | 12 | 160 | 3.17 | 510
CC(C)CN(C[C@@H]1O[C@@H](OC2CCCCC2)[C@H](O)[C@@H]1O)C(=O)N(CCCl)N=O [Compound 171, 3-isobutyl-3-(cyclohexyl α-L-lyxofuranose-5-yl)-1-(2-chloroethyl)-1-nitrosourea] | – | – | 4/6 | > 450 | 16.2 | – | – | 4/6 | > 440 | 45.5 | – | – | – | – | – | 190 | 11.7 | 150 | 3.3 | 450
COCCCO[C@H]1O[C@H](CN(C(=O)N(CCCl)N=O)C2CCCCC2)[C@@H](O)[C@H](O)[C@H]1O [Compound 174, 3-cyclohexyl-3-(3-methoxy-n-propyl α-D-glucopyranose-6-yl)-1-(2-chloroethyl)-1-nitrosourea] | – | – | 5/6 | > 620 | 23.8 | – | – | 6/6 | > 700 | 64.8 | – | – | – | – | – | 230 | 9.66 | 180 | 2.78 | 610
CC(C)CO[C@H]1O[C@H](CN(CC(C)(C)C)C(=O)N(CCCl)N=O)[C@@H](O)[C@H](O)[C@H]1O [Compound 183, 3-neopentyl-3-(isobutyl α-D-glucopyranose-6-yl)-1-(2-chloroethyl)-1-nitrosourea] | – | – | 4/6 | > 460 | 15.2 | – | – | 6/6 | > 700 | 56.4 | – | – | – | – | – | 200 | 13.2 | 170 | 3.01 | 520
CCC(COC)O[C@H]1O[C@H](CN(CC(C)(C)C)C(=O)N(CCCl)N=O)[C@@H](O)[C@H](O)[C@H]1O (stereo partly drawn) [Compound 185, 3-neopentyl-3-(1-methoxy-2-n-butyl α-D-glucopyranose-6-yl)-1-(2-chloroethyl)-1-nitrosourea] | – | – | 5/6 | > 625 | 24.5 | – | – | 6/6 | > 700 | 63.1 | – | – | – | – | – | 200 | 8.16 | 170 | 2.69 | 550
COCCCO[C@H]1O[C@H](CN(CC(C)(C)C)C(=O)N(CCCl)N=O)[C@@H](O)[C@H](O)[C@H]1O [Compound 186, 3-neopentyl-3-(3-methoxy-n-propyl α-D-glucopyranose-6-yl)-1-(2-chloroethyl)-1-nitrosourea] | – | – | 5/6 | > 620 | 23.4 | – | – | 6/6 | > 700 | 64.3 | – | – | – | – | – | 200 | 8.55 | 160 | 2.49 | 520
CCOCCO[C@H]1O[C@H](CO)[C@@H](O)[C@H](O)[C@H]1N(CCC(C)(C)C)C(=O)N(CCCl)N=O [Compound 192, 3-(3,3-dimethyl-n-butyl)-3-(2-ethoxyethyl α-D-glucopyranose-2-yl)-1-(2-chloroethyl)-1-nitrosourea] | – | – | 5/6 | > 625 | 20.3 | – | – | 6/6 | > 700 | 58.4 | – | – | – | – | – | 200 | 9.85 | 160 | 2.74 | 515
COCCOCCO[C@H]1O[C@H](CN(C(=O)N(CCCl)N=O)C(C)(C)C)[C@@H](O)[C@H](O)[C@H]1O [Compound 197] | – | – | 5/6 | > 625 | 21.6 | – | – | 6/6 | > 700 | 59.2 | – | – | – | – | – | 200 | 9.26 | 160 | 2.7 | 530
COC(C)CCO[C@H]1O[C@H](CN(C(=O)N(CCCl)N=O)C(C)(C)C)[C@@H](O)[C@H](O)[C@H]1O (stereo partly drawn) [Compound 198, 3-tert-butyl-3-(3-methoxy-n-butyl α-D-glucopyranose-6-yl)-1-(2-chloroethyl)-1-ntirosourea] | – | – | 5/6 | > 640 | 22.7 | – | – | 6/6 | > 700 | 65.3 | – | – | – | – | – | 220 | 9.69 | 180 | 2.76 | 570
O=NN(CCCl)C(=O)N[C@H]1C(O)O[C@H](CO)[C@@H](O)[C@@H]1O (some centres unmarked) [DCNU, reference compound] | – | – | 0/6 | 20 | – | – | – | 5/6 | > 625 | 8.9 | – | – | – | – | – | 100 | – | 6.2 | 0.7 | 39

Source: patent US4593090A, “Novel nitrosourea compounds, method for preparing same, and pharmaceutical composition containing same” (Gogo Kimura, priority 1981, dated 1986)
